# Measured values reported in ChEMBL document CHEMBL1147496, “Synthesis and anti-inflammatory activity of some [4,6-(4-substituted aryl)-2-thioxo-1,2,3,4-tetrahydro-pyrimidin-5-yl]-acetic acid derivatives” (2004).
# Test system: Rattus norvegicus
# Test: Anti-inflammatory activity was determined by carangeenan-induced rat paw edema test in albino rats
# Type: functional
# Set-up: concentration or dose not given beside the values
row,SMILES,Inhibition [%]
1,Cc1ccc(C2=C(CC(=O)O)C(c3ccccc3)NC(S)=N2)cc1 (stereo not drawn),28
2,Cc1ccc(C2=C(CC(=O)O)C(c3ccco3)NC(S)=N2)cc1 (stereo not drawn),11
3,O=C(O)CC1=C(c2ccc(Cl)cc2)N=C(S)NC1c1ccc(Cl)cc1 (stereo not drawn),25
4,Cc1ccc(C2=C(CC(=O)O)C(c3cccs3)NC(S)=N2)cc1 (stereo not drawn),10
5,O=C(O)CC1=C(c2ccc(Cl)cc2)N=C(S)NC1c1cccs1 (stereo not drawn),16
6,O=C(O)CC1=C(c2ccccc2)N=C(S)NC1c1ccc(Cl)cc1 (stereo not drawn),30
7,O=C(O)CC1=C(c2ccc(Cl)cc2)N=C(S)NC1c1ccccc1 (stereo not drawn),20
8,O=C(O)CC1=C(c2ccccc2)N=C(S)NC1c1ccccc1 (stereo not drawn),17
9,O=C(O)CC1=C(c2ccccc2)N=C(S)NC1c1ccco1 (stereo not drawn),19
10,O=C(O)CC1=C(c2ccc(Cl)cc2)N=C(S)NC1c1ccco1 (stereo not drawn),9
11,COc1ccc(C2NC(S)=NC(c3ccc(Cl)cc3)=C2CC(=O)O)cc1 (stereo not drawn),35
12,COc1ccc(C2NC(S)=NC(c3ccccc3)=C2CC(=O)O)cc1 (stereo not drawn),32
13,Cc1ccc(C2=C(CC(=O)O)C(c3cccnc3)NC(S)=N2)cc1 (stereo not drawn),7
14,COc1ccc(C2NC(S)=NC(c3ccc(C)cc3)=C2CC(=O)O)cc1 (stereo not drawn),33
15,Cc1ccc(C2=C(CC(=O)O)C(c3ccc(Cl)cc3)NC(S)=N2)cc1 (stereo not drawn),22
16,O=C(O)CC1=C(c2ccccc2)N=C(S)NC1c1cccnc1 (stereo not drawn),15
17,O=C(O)CC1=C(c2ccc(Cl)cc2)N=C(S)NC1c1cccnc1 (stereo not drawn),11
18,O=C(O)CC1=C(c2ccccc2)N=C(S)NC1c1cccs1 (stereo not drawn),21
